Source: paper PMC12006171, “Marsupial cathelicidins: characterization, antimicrobial activity and evolution in this unique mammalian lineage” (Frontiers in Immunology, 2025)
Values after ≈ are worked out from the molar mass of the structure shown. Like-named read-outs stand apart in the source and are kept apart here. Where a SMILES comes first, the peptide text is derived from it.

Legend:
Format in all cases: cell-based
[1] = test system: Escherichia coli ATCC 25922; assay: microbe, parasite or virus in culture; details: ATCC 25922
In short: (§1)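 Broth microdilution following CLSI M07-A/M26A, using peptides at 64–0.125 μg/mL final in MHB, with or without 10% lysed horse blood and with or without Ca/Mg cations (MH II B). Inoculum 5 x 10^5 CFU/mL, incubated 20–24 h at 35 °C; MIC is lowest concentration preventing visible growth, MBC by colony counts versus starting inoculum.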

[2] = test system: Escherichia coli clinical isolate - animal; assay: microbe, parasite or virus in culture; details: clinical isolate - animal
In short: as §1

[3] = test system: Pseudomonas aeruginosa ATCC 27853; assay: microbe, parasite or virus in culture; details: ATCC 27853
In short: as §1

[4] = test system: Pseudomonas aeruginosa clinical isolate - animal; assay: microbe, parasite or virus in culture; details: clinical isolate - animal
In short: as §1

[5] = test system: Staphylococcus aureus ATCC 29213; assay: microbe, parasite or virus in culture; details: ATCC 29213
In short: as §1

[6] = test system: Staphylococcus aureus clinical isolate - animal; assay: microbe, parasite or virus in culture; details: clinical isolate - animal; for MIC: read-out: MIC S. aureus
In short: as §1

Candida krusei ATCC 6258 = assay: microbe, parasite or virus in culture; details: ATCC 6258; read-out: MIC C. krusei ATCC
Method: (§2) Antimicrobial testing of 78 cathelicidin MPs was performed in two phases as outlined in Figure 1 . In phase I, 40 peptides (27 extant and 13 ancestral) were selected for testing based on rank (outlined above) and similarity to published marsupial cathelicidins with known antimicrobial activity ([33], [41]–[43]). These peptides were tested against nine bacteria (Staphylococcus aureus ATCC 29213 and clinical isolate, Escherichia coli ATCC 25922 and clinical isolate, Pseudomonas aeruginosa ATCC 27853 and clinical isolate, Streptococcus agalactiae ATCC 12386 and clinical isolate, Streptococcus pneumoniae ATCC 49619) and three fungi (Candida krusei ATCC 6258, Candida parapsilosis ATCC 22019, and Candida albicans clinical isolate). Details regarding these strains are available in Supplementary Table 4 . The antimicrobial activity of cathelicidins was determined as the minimum inhibitory concentration (MIC), which was the lowest concentration of cathelicidin that prevented visible bacterial or fungal growth, relative to the negative control. […] Minimum bactericidal concentration (MBC) and/or minimum fungicidal concentration (MFC) was conducted to determine microbicidal versus static action. Activity against S. aureus ATCC, E. coli ATCC, and Pseudomonas aeruginosa ATCC 27853 was examined in the presence of divalent cations to determine the impact of inhibitors.
(§3) Antimicrobial activity was determined using a broth microdilution susceptibility assay in 96 well polypropylene plates according to Clinical Laboratory Standards Institute guidelines M07-A and M26A as described previously ([33], [42], [43]). The bacterial and fungal isolates from humans and animals used in this study are outlined in Supplementary Table 4 . Only yeasts were included in the panel of fungi as they have been used in the susceptibility testing of eutherian ([3], [81]–[83]) and other marsupial cathelicidins previously ([33], [42], [43]). Cathelicidin mature peptides were solubilized in DMSO and serially diluted in duplicate from 128-0.25μg/mL in a final volume of 100µL. For bacteria, cathelicidins were diluted in Mueller Hinton Broth (MHB) with or without 10% lysed horse blood, and with (MH II B) or without (MHB) calcium and magnesium cations. For fungi, cathelicidins were diluted in Roswell Park Memorial Institute medium (RPMI)-1640 MOPS. Ampicillin or tetracycline were included as a positive control for Gram-positive and -negative bacteria respectively, while amphotericin B was used for fungi. A media-only negative control and growth control (no cathelicidin) were also included on each plate. Bacteria were sub-cultured on Muller Hinton agar (MHA) or sheep blood agar (BA), and fungi on Sabouraud dextrose agar (SAB), 20–24 hours prior to the test. Colonies were suspended in saline, the concentration adjusted to a 0.5 McFarland standard, and then diluted in media to a concentration of 1.0 x 10^6 cells/mL. Then, 100μL was added to each well of the cathelicidin dilution plate, giving a final inoculum density of 5 x 10^5 CFU/mL and cathelicidin concentration of 64-0.125μg/mL. Colony counts were performed on MHA/BA/SAB to confirm inoculum density. All plates were incubated at 35°C for 20–24 hours, depending on the strain.
(§4) Colonies were counted and compared to the colony count of the starting inoculum.

[7] = test system: Candida parapsilosis ATCC 22019; assay: microbe, parasite or virus in culture; details: ATCC 22019
Method: as §2, §3, §4

[8] = test system: Streptococcus agalactiae ATCC 12386; assay: microbe, parasite or virus in culture; details: ATCC 12386; read-out: MIC S. agalactiae ATCC
Method: as §2, §3, §4

[9] = test system: Streptococcus agalactiae Clinical isolate - animal; assay: microbe, parasite or virus in culture; details: clinical isolate - animal; read-out: MIC S. agalactiae
Method: as §2, §3, §4

[10] = test system: Streptococcus pneumoniae ATCC 49619; assay: microbe, parasite or virus in culture; details: ATCC 49619; read-out: MIC S. pneumoniae ATCC
Method: as §2, §3, §4

[11] = test system: Staphylococcus aureus clinical isolate – animal, methicillin-resistant (MRSA); details: clinical isolate – animal, methicillin-resistant
Method: as §2, §3, §4

[12] = test system: Staphylococcus aureus clinical isolate – animal, penicillin-resistant (PRSA); details: clinical isolate – animal, penicillin-resistant (PRSA)
Method: as §2, §3, §4

[13] = test system: six bacteria (S. aureus, E. coli, P. aeruginosa; ATCC and clinical isolate)
Method: as §2
In phase II, the remaining 38 peptides (37 extant and one ancestral) were tested against six bacteria (S. aureus ATCC and clinical isolate, E. coli ATCC and clinical isolate, and P. aeruginosa ATCC and clinical isolate). […] No further testing on phase II peptides was performed. Detailed methods for all assays are provided in subsequent sections.
as §3, §4

[14] = read-out: MIC P. aeruginosa ATCC
[15] = read-out: MIC in the presence of cations E. coli ATCC

SMILES | MBC E. coli ATCC [1] | MBC E. coli [2] | MIC [2] | MIC in the presence of cations E. coli [2] | MIC [3, 14] | MIC ([4]; read-out: MIC P. aeruginosa) | MIC S. aureus [6] | MIC in the presence of cations S. aureus [6] | MIC [8] | MIC [9] | MIC [10] | MBC MRSA [11] | MIC MRSA [11] | MBC PRSA [12] | MIC PRSA [12] | MIC ([1]; read-out: MIC E. coli ATCC) | MIC [1, 15] | MIC ([5]; read-out: MIC S. aureus ATCC) | MIC [6] | also measured
CC[C@H](C)[C@H](NC(=O)[C@H](CCCNC(=N)N)NC(=O)[C@@H](N)CCCCN)C(=O)NCC(=O)N[C@@H](CC(C)C)C(=O)NCC(=O)NCC(=O)N[C@@H](CC(C)C)C(=O)N[C@H](C(=O)N[C@@H](CCCNC(=N)N)C(=O)N[C@@H](CCCNC(=N)N)C(=O)N[C@H](C(=O)N[C@@H](CC(C)C)C(=O)N[C@@H](CC(=O)O)C(=O)N[C@@H](CCCNC(=N)N)C(=O)N[C@H](C(=O)N[C@@H](CCCNC(=N)N)C(=O)N[C@@H](CCCNC(=N)N)C(=O)N[C@@H](CCCNC(=N)N)C(=O)NCC(=O)O)[C@@H](C)CC)[C@@H](C)CC)C(C)C [AnstCath4] (H-KRIGLGGLVRRILDRIRRRG-OH) | 27.1 (27.1)^27.1 µM | 27.1 µM (≈ 64 µg/mL) | 13.5 µM (≈ 31.9 µg/mL) | 27.1 µM | >27.1 µM | >27.1 µM | 13.5 (13.5)^13.5 µM | 13.5 (13.5)^13.5 µM | >27.1 µM | >27.1 µM | >27.1 µM | 27.1 µM (≈ 64 µg/mL) | 13.5 µM (≈ 31.9 µg/mL) | 6.7 µM (≈ 15.8 µg/mL) | 6.7 µM (≈ 15.8 µg/mL) | – | – | – | – | MIC E. coli ATCC [1]: 27.1 (27.1)^27.1 µM; MBC S. aureus ATCC [5]: 13.5 (13.5)^13.5 µM; MIC S. aureus ATCC [5]: 13.5 (13.5)^13.5 µM; MIC in the presence of cations S. aureus ATCC [5]: 13.5 (13.5)^13.5 µM; MBC S. aureus [6]: 13.5 (13.5)^13.5 µM; MIC (Candida krusei ATCC 6258): 8.9 µM (≈ 21 µg/mL); MFC C. parapsilosis ATCC [7]: 64 (>64) µg/mL
CC[C@H](C)[C@H](NC(=O)[C@H](CCC(N)=O)NC(=O)[C@H](Cc1ccccc1)NC(=O)[C@H](CC(N)=O)NC(=O)[C@H](CCCCN)NC(=O)[C@H](CC(C)C)NC(=O)[C@H](CCCNC(=N)N)NC(=O)[C@H](CCCCN)NC(=O)[C@H](CCCCN)NC(=O)[C@@H](NC(=O)[C@H](CO)NC(=O)[C@H](CCCCN)NC(=O)CNC(=O)[C@H](CC(C)C)NC(=O)[C@H](CCCCN)NC(=O)[C@H](CCCCN)NC(=O)[C@H](CC(C)C)NC(=O)[C@H](CCCCN)NC(=O)[C@H](CCCCN)NC(=O)[C@H](CCCNC(=N)N)NC(=O)[C@H](CC(C)C)NC(=O)CNC(=O)[C@@H](N)CCCNC(=N)N)[C@@H](C)CC)C(=O)NCC(=O)N[C@@H](Cc1ccccc1)C(=O)N[C@@H](CO)C(=O)N[C@H](C(=O)N1CCC[C@H]1C(=O)N[C@@H](Cc1ccccc1)C(=O)N[C@@H](C)C(=O)NCC(=O)O)C(C)C [PegaCath4] (H-RGLRKKLKKLGKSIKKRLKNFQIGFSVPFAG-OH) | 2.2 µM (≈ 7.8 µg/mL) | 1.1 µM (≈ 3.9 µg/mL) | 1.1 µM (≈ 3.9 µg/mL) | – | 2.2 µM (≈ 7.8 µg/mL) | 2.2 µM (≈ 7.8 µg/mL) | 18 (>18)^18 µM | 18 (>18)^18 µM | >18 µM | >18 µM | >18 µM | > 18 µM | 18 µM (≈ 63.8 µg/mL) | > 18 µM | 4.5 µM (≈ 15.9 µg/mL) | 1.1 µM (≈ 3.9 µg/mL) | 1.1 µM | 9 µM (≈ 31.9 µg/mL) | – | MBC P. aeruginosa ATCC [3]: 4.5 µM (≈ 15.9 µg/mL); MIC ([3]; read-out: MIC in the presence of cations P. aeruginosa ATCC): 2.2 µM; MBC P. aeruginosa [4]: 4.5 µM (≈ 15.9 µg/mL); MIC ([4]; read-out: MIC in the presence of cations P. aeruginosa): 2.2 µM; MIC ([5]; read-out: MIC in the presence of cations S. aureus ATCC): 18 µM; MIC against at least one strain [13]: 4 µg/mL (≈ 1.13 µM)
CC[C@H](C)[C@H](NC(=O)CNC(=O)[C@H](CCC(=O)O)NC(=O)[C@H](CCC(N)=O)NC(=O)[C@@H](NC(=O)[C@H](CCCCN)NC(=O)[C@H](CC(N)=O)NC(=O)[C@H](CCCCN)NC(=O)[C@@H](NC(=O)[C@H](CC(C)C)NC(=O)[C@H](CC(N)=O)NC(=O)CNC(=O)[C@H](CC(C)C)NC(=O)[C@H](CCCCN)NC(=O)[C@H](CCCNC(=N)N)NC(=O)[C@H](CC(C)C)NC(=O)CN)[C@@H](C)CC)[C@@H](C)CC)C(=O)N[C@@H](CCC(=O)O)C(=O)N[C@@H](Cc1c[nH]cn1)C(=O)N[C@@H](Cc1ccccc1)C(=O)N[C@@H](Cc1ccccc1)C(=O)NCC(=O)N[C@@H](CCCNC(=N)N)C(=O)N[C@@H](CCCNC(=N)N)C(=O)O [SmcrCath6] (H-GLRKLGNLIKNKIQEGIEHFFGRR-OH) | 22.6 µM (≈ 63.8 µg/mL) | – | >22.6 µM | – | >22.6 µM | >22.6 µM | – | – | >22.6 µM | >22.6 µM | >22.6 µM | – | – | – | – | 11.3 µM (≈ 31.9 µg/mL) | 22.6 µM | >22.6 µM | >22.6 µM | –
CC[C@H](C)[C@H](NC(=O)[C@H](CCCCN)NC(=O)[C@H](CC(C)C)NC(=O)CNC(=O)[C@H](CC(N)=O)NC(=O)[C@@H](NC(=O)[C@H](CCCNC(=N)N)NC(=O)[C@H](CCCNC(=N)N)NC(=O)[C@H](CCCNC(=N)N)NC(=O)[C@@H](NC(=O)[C@H](CO)NC(=O)[C@H](CC(N)=O)NC(=O)[C@H](CCCNC(=N)N)NC(=O)[C@H](CC(C)C)NC(=O)[C@H](CCCCN)NC(=O)[C@H](CCCCN)NC(=O)[C@H](C)NC(=O)[C@H](CCCCN)NC(=O)[C@H](CCC(=O)O)NC(=O)[C@H](CCCCN)NC(=O)[C@@H](NC(=O)[C@@H](NC(=O)[C@H](CC(=O)O)NC(=O)[C@H](Cc1c[nH]c2ccccc12)NC(=O)[C@H](CC(C)C)NC(=O)CNC(=O)[C@H](CCCNC(=N)N)NC(=O)[C@@H](N)CCCCN)[C@@H](C)O)C(C)C)[C@@H](C)CC)C(C)C)C(=O)NCC(=O)N[C@@H](C)C(=O)N[C@@H](C)C(=O)N[C@@H](CC(=O)O)C(=O)N[C@@H](CCC(N)=O)C(=O)N[C@H](C(=O)N1CCC[C@H]1C(=O)NCC(=O)N[C@@H](Cc1c[nH]cn1)C(=O)N[C@@H](CO)C(=O)N[C@@H](CC(C)C)C(=O)O)C(C)C [LahiCath4] (H-KRGLWDTVKEKAKKLRNSIRRRVNGLKIGAADQVPGHSL-OH) | 14.5 µM (≈ 63.8 µg/mL) | 14.5 µM (≈ 63.8 µg/mL) | 3.6 µM (≈ 15.8 µg/mL) | 14.5 µM | >14.5 µM | >14.5 µM | – | – | >14.5 µM | >14.5 µM | >14.5 µM | – | – | – | – | 7.2 µM (≈ 31.7 µg/mL) | 14.5 µM | >14.5 µM | >14.5 µM | –
